Assays:
[1] = φn = volume fraction of the nth substance listed; conditions: Liquid, φ1 = 0.75
[2] = Liquid

OCCO [1,2-ethanediol] + O
[1]
Conditions | specific volume [m3/kg]
273.15 K, 100 kPa, Vibrating tube method | 0.0009024
274.15 K, 100 kPa, Vibrating tube method | 0.0009029
275.15 K, 100 kPa, Vibrating tube method | 0.0009035
276.15 K, 100 kPa, Vibrating tube method | 0.000904
277.15 K, 100 kPa, Vibrating tube method | 0.0009045
278.15 K, 100 kPa, Vibrating tube method | 0.0009051
279.15 K, 100 kPa, Vibrating tube method | 0.0009056
280.15 K, 100 kPa, Vibrating tube method | 0.0009061
281.15 K, 100 kPa, Vibrating tube method | 0.0009067
282.15 K, 100 kPa, Vibrating tube method | 0.0009072
283.16 K, 100 kPa, Vibrating tube method | 0.0009078
284.16 K, 100 kPa, Vibrating tube method | 0.0009083
285.16 K, 100 kPa, Vibrating tube method | 0.0009088
286.16 K, 100 kPa, Vibrating tube method | 0.0009094
287.16 K, 100 kPa, Vibrating tube method | 0.0009099
288.09 K, 100 kPa, Vibrating tube method | 0.0009104
288.09 K, 148600 kPa, Bellows volumetry | 0.0008753
288.1 K, 98200 kPa, Bellows volumetry | 0.0008859
288.11 K, 100 kPa, Vibrating tube method | 0.0009104
288.11 K, 49700 kPa, Bellows volumetry | 0.0008965
288.12 K, 98200 kPa, Bellows volumetry | 0.0008844
288.13 K, 100 kPa, Vibrating tube method | 0.0009105
288.13 K, 49400 kPa, Bellows volumetry | 0.0008974
288.13 K, 349300 kPa, Bellows volumetry | 0.0008385
288.14 K, 149800 kPa, Bellows volumetry | 0.0008734
288.14 K, 199000 kPa, Bellows volumetry | 0.0008635
288.15 K, 199100 kPa, Bellows volumetry | 0.0008654
288.16 K, 100 kPa, Vibrating tube method | 0.0009105
288.16 K, 248700 kPa, Bellows volumetry | 0.0008558
288.17 K, 299900 kPa, Bellows volumetry | 0.0008461
288.19 K, 250600 kPa, Bellows volumetry | 0.0008544
288.29 K, 299600 kPa, Bellows volumetry | 0.0008463
288.31 K, 199200 kPa, Bellows volumetry | 0.0008639
288.31 K, 350200 kPa, Bellows volumetry | 0.0008386
288.32 K, 251000 kPa, Bellows volumetry | 0.0008545
288.33 K, 49300 kPa, Bellows volumetry | 0.0008968
288.33 K, 149300 kPa, Bellows volumetry | 0.0008737
288.33 K, 300300 kPa, Bellows volumetry | 0.0008464
288.33 K, 348300 kPa, Bellows volumetry | 0.0008391
288.36 K, 100900 kPa, Bellows volumetry | 0.0008842
289.16 K, 100 kPa, Vibrating tube method | 0.000911
290.16 K, 100 kPa, Vibrating tube method | 0.0009116
291.16 K, 100 kPa, Vibrating tube method | 0.0009121
292.15 K, 100 kPa, Vibrating tube method | 0.0009127
293.15 K, 100 kPa, Vibrating tube method | 0.0009132
294.15 K, 100 kPa, Vibrating tube method | 0.0009138
295.16 K, 100 kPa, Vibrating tube method | 0.0009143
296.16 K, 100 kPa, Vibrating tube method | 0.0009149
297.15 K, 100 kPa, Vibrating tube method | 0.0009155
298.15 K, 100 kPa, Vibrating tube method | 0.000916
299.15 K, 100 kPa, Vibrating tube method | 0.0009166
300.16 K, 100 kPa, Vibrating tube method | 0.0009172
301.16 K, 100 kPa, Vibrating tube method | 0.0009177
302.16 K, 100 kPa, Vibrating tube method | 0.0009183
303.16 K, 100 kPa, Vibrating tube method | 0.0009189
304.16 K, 100 kPa, Vibrating tube method | 0.0009195
305.16 K, 100 kPa, Vibrating tube method | 0.00092
306.16 K, 100 kPa, Vibrating tube method | 0.0009206
307.15 K, 100 kPa, Vibrating tube method | 0.0009212
308.15 K, 100 kPa, Vibrating tube method | 0.0009218
309.15 K, 100 kPa, Vibrating tube method | 0.0009223
310.15 K, 100 kPa, Vibrating tube method | 0.0009229
311.15 K, 100 kPa, Vibrating tube method | 0.0009235
312.15 K, 100 kPa, Vibrating tube method | 0.0009241
313.15 K, 100 kPa, Vibrating tube method | 0.0009247

OCCO [1,2-ethanediol]
[2]
Conditions | specific volume [m3/kg]
273.15 K, 100 kPa, Vibrating tube method | 0.0008871
274.14 K, 100 kPa, Vibrating tube method | 0.0008876
275.14 K, 100 kPa, Vibrating tube method | 0.0008882
276.15 K, 100 kPa, Vibrating tube method | 0.0008887
277.15 K, 100 kPa, Vibrating tube method | 0.0008893
278.15 K, 100 kPa, Vibrating tube method | 0.0008898
279.15 K, 100 kPa, Vibrating tube method | 0.0008904
280.15 K, 100 kPa, Vibrating tube method | 0.0008909
281.15 K, 100 kPa, Vibrating tube method | 0.0008915
282.15 K, 100 kPa, Vibrating tube method | 0.000892
283.15 K, 100 kPa, Vibrating tube method | 0.0008926
284.15 K, 100 kPa, Vibrating tube method | 0.0008931
285.15 K, 100 kPa, Vibrating tube method | 0.0008937
286.15 K, 100 kPa, Vibrating tube method | 0.0008942
287.15 K, 100 kPa, Vibrating tube method | 0.0008948
288.09 K, 99800 kPa, Bellows volumetry | 0.0008687
288.12 K, 348700 kPa, Bellows volumetry | 0.0008241
288.15 K, 100 kPa, Vibrating tube method | 0.0008954
288.15 K, 299700 kPa, Bellows volumetry | 0.0008313
288.15 K, 349400 kPa, Bellows volumetry | 0.0008238
288.16 K, 100 kPa, Vibrating tube method | 0.0008954
288.17 K, 150000 kPa, Bellows volumetry | 0.0008579
288.17 K, 248800 kPa, Bellows volumetry | 0.0008395
288.17 K, 298500 kPa, Bellows volumetry | 0.0008314
288.17 K, 350400 kPa, Bellows volumetry | 0.0008236
288.18 K, 48900 kPa, Bellows volumetry | 0.0008815
288.18 K, 99800 kPa, Bellows volumetry | 0.0008684
288.18 K, 149400 kPa, Bellows volumetry | 0.0008577
288.18 K, 198100 kPa, Bellows volumetry | 0.0008485
288.18 K, 299200 kPa, Bellows volumetry | 0.0008312
288.19 K, 49200 kPa, Bellows volumetry | 0.0008811
288.19 K, 249300 kPa, Bellows volumetry | 0.0008392
288.2 K, 248600 kPa, Bellows volumetry | 0.0008396
288.21 K, 100 kPa, Vibrating tube method | 0.0008954
288.21 K, 49000 kPa, Bellows volumetry | 0.0008815
288.21 K, 199700 kPa, Bellows volumetry | 0.0008479
288.22 K, 100 kPa, Vibrating tube method | 0.0008954
288.23 K, 149400 kPa, Bellows volumetry | 0.000858
288.24 K, 99600 kPa, Bellows volumetry | 0.0008688
288.24 K, 199700 kPa, Bellows volumetry | 0.0008482
289.15 K, 100 kPa, Vibrating tube method | 0.0008959
290.15 K, 100 kPa, Vibrating tube method | 0.0008965
291.15 K, 100 kPa, Vibrating tube method | 0.000897
292.15 K, 100 kPa, Vibrating tube method | 0.0008976
293.15 K, 100 kPa, Vibrating tube method | 0.0008982
294.15 K, 100 kPa, Vibrating tube method | 0.0008987
295.15 K, 100 kPa, Vibrating tube method | 0.0008993
296.15 K, 100 kPa, Vibrating tube method | 0.0008998
297.15 K, 100 kPa, Vibrating tube method | 0.0009004
298.16 K, 100 kPa, Vibrating tube method | 0.000901
299.16 K, 100 kPa, Vibrating tube method | 0.0009016
300.16 K, 100 kPa, Vibrating tube method | 0.0009021
301.16 K, 100 kPa, Vibrating tube method | 0.0009027
302.16 K, 100 kPa, Vibrating tube method | 0.0009033
303.15 K, 100 kPa, Vibrating tube method | 0.0009038
304.16 K, 100 kPa, Vibrating tube method | 0.0009044
305.15 K, 100 kPa, Vibrating tube method | 0.000905
306.15 K, 100 kPa, Vibrating tube method | 0.0009056
307.15 K, 100 kPa, Vibrating tube method | 0.0009061
308.15 K, 100 kPa, Vibrating tube method | 0.0009067
309.15 K, 100 kPa, Vibrating tube method | 0.0009073
310.15 K, 100 kPa, Vibrating tube method | 0.0009079
311.15 K, 100 kPa, Vibrating tube method | 0.0009085
312.15 K, 100 kPa, Vibrating tube method | 0.0009091
313.15 K, 100 kPa, Vibrating tube method | 0.0009097
